Measurements reported in patent US20250127801A1, “BRIDGED TRICYCLIC CARBAMOYLPYRIDONE COMPOUNDS AND USES THEREOF” (priority 2023, published 2025).
≈ marks a conversion by molar mass, not a printed value. Where two headings read alike, the source gives them in different places.

Columns and labels:
[1] = system: HIV-1 (IIIB); experiment: microbe, parasite or virus in culture; assay type: cell-based
[2] = in vitro; details: human; for CC50 at 5 days: uninfected MT-4 cells
[3] = physchem; details: 23 °C, thermodynamic from solid; for solubility thermodynamic at 24 h: FaSSIF; for solubility thermodynamic: fassif
[4] = Human immunodeficiency virus 1, MT4, 120 h, HIV-1 (IIIB) replication in MT-4 cells, 5 days incubation, Cell Titer Glo, read-out: MT4 EC50
[5] = Human immunodeficiency virus 1, IIIB, MT4, 120 h, read-out: MT4 EC50 (nM)

For CC1=NO[C@@]2(CC[C@H](C)N3C[C@H]2n2cc(C(=O)NCc4ccc(F)cc4F)c(=O)c(OCOC(=O)OCC4(COP(=O)(O)O)COC4)c2C3=O)C1 [Compound 56, (((3′S,5S,7′R)-10′-((2,4-difluorobenzyl)carbamoyl)-3,3′-dimethyl-1′,11′-dioxo-1′,4′,5′,11′-tetrahydro-3′H,4H,7′H-spiro[isoxazole-5,6′-[2,7]methanopyrido[1,2-a][1,4]diazonin]-12′-yl)oxy)methyl ((3-((phosphonooxy)methyl)oxetan-3-yl)methyl) carbonate], the EC50 [1, 4] was 2.4 nM, the CC50 at 5 days [2] was 12800 nM and the solubility thermodynamic at 24 h [3] was 3560 µg/mL (≈ 4.81 mM).

CC1=NO[C@@]2(CC[C@H](C)N3C[C@H]2n2cc(C(=O)NCc4ccc(F)cc4F)c(=O)c(OCOC(=O)CC(C)(C)c4c(CC(=O)N5CCC[C@@H]5C(=O)O)cc(C)cc4OP(=O)(O)O)c2C3=O)C1 [Compound 57, (2-(2-(4-((((3′S,5S,7′R)-10′-((2,4-difluorobenzyl)carbamoyl)-3,3′-dimethyl-1′,11′-dioxo-1′,4′,5′,11′-tetrahydro-3′H,4H,7′H-spiro[isoxazole-5,6′-[2,7]methanopyrido[1,2-a][1,4]diazonin]-12′-yl)oxy)methoxy)-2-methyl-4-oxobutan-2-yl)-5-methyl-3-(phosphonooxy)phenyl)acetyl)-D-proline] gave an EC50 [1, 5] of 2.55 nM, a CC50 [2] of 15000 nM and a solubility thermodynamic [3] of 5460 µg/mL (≈ 5.79 mM).

For CC1=NO[C@@]2(CC[C@H](C)N3C[C@H]2n2cc(C(=O)NCc4ccc(F)cc4F)c(=O)c(OCOC(=O)CC(C)(C)c4c(CC(=O)N5CCOCC5)cc(C)cc4OP(=O)(O)O)c2C3=O)C1 [Compound 58, (((3′S,5S,7′R)-10′-((2,4-difluorobenzyl)carbamoyl)-3,3′-dimethyl-1′,11′-dioxo-1′,4′,5′,11′-tetrahydro-3′H,4H,7′H-spiro[isoxazole-5,6′-[2,7]methanopyrido[1,2-a][1,4]diazonin]-12′-yl)oxy)methyl 3-methyl-3-(4-methyl-2-(2-morpholino-2-oxoethyl)-6-(phosphonooxy)phenyl)butanoate], the EC50 [1, 5] was 5.78 nM, the CC50 [2] was 29000 nM and the solubility thermodynamic [3] was 4640 µg/mL (≈ 5.08 mM).

Molecule COC1=NO[C@@]2(CC[C@H](C)N3C[C@H]2n2cc(C(=O)NCc4ccc(F)cc4F)c(=O)c(OC(=O)N(C)c4ncccc4CN(CC(=O)O)C(=O)OCOP(=O)(O)O)c2C3=O)C1 [Compound 59, N-((2-(((((3′S,5S,7′R)-10′-((2,4-difluorobenzyl)carbamoyl)-3-methoxy-3′-methyl-1′,11′-dioxo-1′,4′,5′,11′-tetrahydro-3′H,4H,7′H-spiro[isoxazole-5,6′-[2,7]methanopyrido[1,2-a][1,4]diazonin]-12′-yl)oxy)carbonyl)(methyl)amino)pyridin-3-yl)methyl)-N-(((phosphonooxy)methoxy)carbonyl)glycine] has an EC50 [1, 5] of 1.2 nM, a CC50 [2] of 10600 nM and a solubility thermodynamic [3] of 5280 µg/mL (≈ 6.01 mM).

CC1=NO[C@@]2(CC[C@H](C)N3C[C@H]2n2cc(C(=O)NCc4ccc(F)cc4F)c(=O)c(OC(=O)N(C)c4ncccc4CN(C)C(=O)OCOP(=O)(O)O)c2C3=O)C1 [Compound 61, (phosphonooxy)methyl ((2-(((((3′S,5S,7′R)-10′-((2,4-difluorobenzyl)carbamoyl)-3,3′-dimethyl-1′,11′-dioxo-1′,4′,5′,11′-tetrahydro-3′H,4H,7′H-spiro[isoxazole-5,6′-[2,7]methanopyrido[1,2-a][1,4]diazonin]-12′-yl)oxy)carbonyl)(methyl)amino)pyridin-3-yl)methyl)(methyl)carbamate] gave an EC50 [1, 5] of 1.39 nM, a CC50 [2] of 15200 nM and a solubility thermodynamic [3] of 4140 µg/mL (≈ 5.07 mM).

Work on CC1=NO[C@@]2(CC[C@H](C)N3C[C@H]2n2cc(C(=O)NCc4ccc(F)cc4F)c(=O)c(OCOC(=O)N(C)c4ncccc4CN(C)C(=O)OCOP(=O)(O)O)c2C3=O)C1 [Compound 62, (phosphonooxy)methyl ((2-((((((3′S,5S,7′R)-10′-((2,4-difluorobenzyl)carbamoyl)-3,3′-dimethyl-1′,11′-dioxo-1′,4′,5′,11′-tetrahydro-3′H,4H,7′H-spiro[isoxazole-5,6′-[2,7]methanopyrido[1,2-a][1,4]diazonin]-12′-yl)oxy)methoxy)carbonyl)(methyl)amino)pyridin-3-yl)methyl)(methyl)carbamate] yielded an EC50 [1, 5] of 1.73 nM, a CC50 [2] of 14600 nM and a solubility thermodynamic [3] of 5030 µg/mL (≈ 5.93 mM).

For CC1=NO[C@@]2(CC[C@H](C)N3C[C@H]2n2cc(C(=O)NCc4ccc(F)cc4F)c(=O)c(OCOC(=O)N4CCOC[C@@H]4COP(=O)(O)O)c2C3=O)C1 [Compound 63, (((3′S,5S,7′R)-10′-((2,4-difluorobenzyl)carbamoyl)-3,3′-dimethyl-1′,11′-dioxo-1′,4′,5′,11′-tetrahydro-3′H,4H,7′H-spiro[isoxazole-5,6′-[2,7]methanopyrido[1,2-a][1,4]diazonin]-12′-yl)oxy)methyl (3R)-3-((phosphonooxy)methyl)morpholine-4-carboxylate], the EC50 [1, 5] was 18.7 nM, the CC50 [2] was at least 50000 nM and the solubility thermodynamic [3] was 5000 µg/mL (≈ 6.76 mM).

CC1=NO[C@@]2(CC[C@H](C)N3C[C@H]2n2cc(C(=O)NCc4ccc(F)cc4F)c(=O)c(OCOC(=O)N4CCOC[C@H]4COP(=O)(O)O)c2C3=O)C1 [Compound 64, (((3′S,5S,7′R)-10′-((2,4-difluorobenzyl)carbamoyl)-3,3′-dimethyl-1′,11′-dioxo-1′,4′,5′,11′-tetrahydro-3′H,4H,7′H-spiro[isoxazole-5,6′-[2,7]methanopyrido[1,2-a][1,4]diazonin]-12′-yl)oxy)methyl (3S)-3-((phosphonooxy)methyl)morpholine-4-carboxylate] showed an EC50 [1, 4] of 21.4 nM, a CC50 at 5 days [2] of at least 50000 nM and a solubility thermodynamic at 24 h [3] of 4840 µg/mL (≈ 6.54 mM).

With CC1=NO[C@@]2(CC[C@H](C)N3C[C@H]2n2cc(C(=O)NCc4ccc(F)cc4F)c(=O)c(OCOC(=O)N4CCC[C@H]4COP(=O)(O)O)c2C3=O)C1 [Compound 66, (((3′S,5S,7′R)-10′-((2,4-difluorobenzyl)carbamoyl)-3,3′-dimethyl-1′,11′-dioxo-1′,4′,5′,11′-tetrahydro-3′H,4H,7′H-spiro[isoxazole-5,6′-[2,7]methanopyrido[1,2-a][1,4]diazonin]-12′-yl)oxy)methyl (2S)-2-((phosphonooxy)methyl)pyrrolidine-1-carboxylate] the EC50 [1, 4] was 63.8 nM, the CC50 at 5 days [2] was at least 50000 nM and the solubility thermodynamic at 24 h [3] was 4820 µg/mL (≈ 6.67 mM).

Work on CC1=NO[C@@]2(CC[C@H](C)N3C[C@H]2n2cc(C(=O)NCc4ccc(F)cc4F)c(=O)c(OCc4ccccc4OP(=O)(O)O)c2C3=O)C1 [Compound 69, 2-((((3′S,5S,7′R)-10′-((2,4-difluorobenzyl)carbamoyl)-3,3′-dimethyl-1′,11′-dioxo-1′,4′,5′,11′-tetrahydro-3′H,4H,7′H-spiro[isoxazole-5,6′-[2,7]methanopyrido[1,2-a][1,4]diazonin]-12′-yl)oxy)methyl)phenyl dihydrogen phosphate] yielded an EC50 [1, 5] of 1.78 nM, a CC50 [2] of 14100 nM and a solubility thermodynamic [3] of 5140 µg/mL.

For CC1=NO[C@@]2(CC[C@H](C)N3C[C@H]2n2cc(C(=O)NCc4ccc(F)cc4F)c(=O)c(OCc4ccncc4OP(=O)(O)O)c2C3=O)C1 [Compound 70, 4-((((3′S,5S,7′R)-10′-((2,4-difluorobenzyl)carbamoyl)-3,3′-dimethyl-1′,11′-dioxo-1′,4′,5′,11′-tetrahydro-3′H,4H,7′H-spiro[isoxazole-5,6′-[2,7]methanopyrido[1,2-a][1,4]diazonin]-12′-yl)oxy)methyl)pyridin-3-yl dihydrogen phosphate], the EC50 [1, 5] was 1.63 nM, the CC50 [2] was 10200 nM and the solubility thermodynamic [3] was 2460 µg/mL.

Work on CC1=NO[C@@]2(CC[C@H](C)N3C[C@H]2n2cc(C(=O)NCc4ccc(F)cc4F)c(=O)c(OCc4ccc(OP(=O)(O)O)cn4)c2C3=O)C1 [Compound 71, 6-((((3′S,5S,7′R)-10′-((2,4-difluorobenzyl)carbamoyl)-3,3′-dimethyl-1′,11′-dioxo-1′,4′,5′,11′-tetrahydro-3′H,4H,7′H-spiro[isoxazole-5,6′-[2,7]methanopyrido[1,2-a][1,4]diazonin]-12′-yl)oxy)methyl)pyridin-3-yl dihydrogen phosphate] yielded an EC50 [1, 5] of 1.02 nM, a CC50 [2] of 9300 nM and a solubility thermodynamic [3] of 3470 µg/mL.

Molecule CC1=NO[C@@]2(CC[C@H](C)N3C[C@H]2n2cc(C(=O)NCc4ccc(F)cc4F)c(=O)c(OCOC(=O)OCc4ccncc4OP(=O)(O)O)c2C3=O)C1 [Compound 72, (((3′S,5S,7′R)-10′-((2,4-difluorobenzyl)carbamoyl)-3,3′-dimethyl-1′,11′-dioxo-1′,4′,5′,11′-tetrahydro-3′H,4H,7′H-spiro[isoxazole-5,6′-[2,7]methanopyrido[1,2-a][1,4]diazonin]-12′-yl)oxy)methyl ((3-(phosphonooxy)pyridin-4-yl)methyl) carbonate] has an EC50 [1, 5] of 1.34 nM, a CC50 [2] of 11200 nM and a solubility thermodynamic [3] of 2560 µg/mL (≈ 3.42 mM).

Work on CC1=NO[C@@]2(CC[C@H](C)N3C[C@H]2n2cc(C(=O)NCc4ccc(F)cc4F)c(=O)c(OCOC(=O)N(C)Cc4ccc(C(=O)O)cc4OP(=O)(O)O)c2C3=O)C1 [Compound 74, 4-(((((((3′S,5S,7′R)-10′-((2,4-difluorobenzyl)carbamoyl)-3,3′-dimethyl-1′,11′-dioxo-1′,4′,5′,11′-tetrahydro-3′H,4H,7′H-spiro[isoxazole-5,6′-[2,7]methanopyrido[1,2-a][1,4]diazonin]-12′-yl)oxy)methoxy)carbonyl)(methyl)amino)methyl)-3-(phosphonooxy)benzoic acid] yielded an EC50 [1, 5] of 6.61 nM, a CC50 [2] of 29400 nM and a solubility thermodynamic [3] of 4860 µg/mL (≈ 6.05 mM).

Molecule CC1=NO[C@@]2(CC[C@H](C)N3C[C@H]2n2cc(C(=O)NCc4ccc(F)cc4F)c(=O)c(OCOC(=O)N(C)Cc4cc(C(=O)O)ccc4OP(=O)(O)O)c2C3=O)C1 [Compound 76, 3-(((((((3′S,5S,7′R)-10′-((2,4-difluorobenzyl)carbamoyl)-3,3′-dimethyl-1′,11′-dioxo-1′,4′,5′,11′-tetrahydro-3′H,4H,7′H-spiro[isoxazole-5,6′-[2,7]methanopyrido[1,2-a][1,4]diazonin]-12′-yl)oxy)methoxy)carbonyl)(methyl)amino)methyl)-4-(phosphonooxy)benzoic acid] has an EC50 [1, 5] of 4.41 nM, a CC50 [2] of 12900 nM and a solubility thermodynamic [3] of 4060 µg/mL (≈ 5.05 mM).
